According to patent publication US10307413B2, “Tetrahydro- and dihydro-isoquinoline PRMT5 inhibitors and uses thereof” (Epizyme, Inc., priority 2013, dated 2019):

How the values were obtained:
[1] = system: symmetric di-methyl arginine in Z-138 cells; experiment: Z-138 Methylation Assay (In Cell Western for symmetric di-methyl arginine and DNA content); type: cell-based; conditions: Homo sapiens, read-out: ICW EC50
Outline: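 Z-138 cells (50,000 cells/mL) treated with compound 96 h at 37 °C, then fixed and stained for symmetric di-methyl arginine (800 nm) with DRAQ5 DNA counterstain (700 nm) on Licor Odyssey.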

[2] = system: Z-138 cell line; experiment: Z-138 Proliferation Assay (Cell Titer Glo, 5 days); type: cell-based; conditions: Homo sapiens, 120 h; Z-138 cells, 5 days; read-out: Proliferation EC50
Outline: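 Z-138 cells exposed 5 days at 37 °C, 5% CO2 to nine-point 3-fold dilutions (final top 20 μM, 0.2% DMSO), in triplicate. Viability read as ATP by CellTiter-Glo luminescence; IC50 from 4-parameter fit of normalized dose-response curves.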

SMILES	EC50 [1] [nM]	EC50 [2] [nM]
CC(=O)N1CCC(Nc2cc(C(=O)NC[C@H](O)CN3CCc4ccccc4C3)ncn2)CC1 [Compound 208, (S)-6-((1-acetylpiperidin-4-yl)amino)-N-(3-(3,4-dihydroisoquinolin-2(1H)-yl)-2-hydroxypropyl)pyrimidine-4-carboxamide]	< 100	< 100
O=C(NC[C@@H](O)CN1CCc2ccccc2C1)c1cccc(-c2ccccn2)c1 [Compound 19]	101 to 1000	10000 to 50000
O=C(NC[C@H](O)CN1CCc2ccccc2C1)c1cc2c(F)cccc2[nH]1 [Compound 296]	< 100	101 to 1000
CC(c1cccc(C(=O)NCC(O)CN2CCc3ccccc3C2)c1)N1CCN(C)CC1 (stereo not shown) [Compound 161]	< 100	1000 to 10000
O=C(NCC(O)CN1CCc2ccccc2C1)c1ccc(OC2CCNC2)cc1 (stereo not shown) [Compound 176]	< 100	1000 to 10000
COc1ccc2cc(C(=O)NCC(O)CN3CCc4ccccc4C3)ccc2n1 (stereo not shown) [Compound 155]	1000 to 10000	> 20000
O=C(NC[C@H](O)CN1CCc2ccccc2C1)c1ccnc(NCC2CCCNC2)c1 (stereo partly shown) [Compound 236]	101 to 1000	1000 to 10000
O=C(NC[C@H](O)CN1CCc2ccccc2C1)c1cc(NC2CNC2)ncn1 [Compound 280]	< 100	101 to 1000
O=C(NC[C@H](O)CN1CCc2ccccc2C1)c1ccc2[nH]cnc2c1 [Compound 294]	101 to 1000	1000 to 10000
CC(=O)N1CCC(Oc2cc(C(=O)NC[C@H](O)CN3CCc4ccccc4C3)ccn2)CC1 [Compound 205]	< 100	101 to 1000
CN(C)CCNc1cc(C(=O)NC[C@H](O)CN2CCc3ccccc3C2)ccn1 [Compound 214]	< 100	1000 to 10000
O=C(NC[C@H](O)CN1CCc2ccccc2C1)c1cnc2ccccc2n1 [Compound 245]	101 to 1000	10000 to 50000
O=C(NC[C@H](O)CN1CCc2ccccc2C1)Nc1ccccc1 [Compound 5]	101 to 1000	> 20000
CS(=O)(=O)N1CCC(Nc2cc(C(=O)NC[C@H](O)CN3CCc4ccccc4C3)ccn2)CC1 [Compound 225]	< 100	< 100
O=C(NC[C@H](O)CN1CCc2ccccc2C1)c1ccc2ncsc2c1 [Compound 273]	101 to 1000	1000 to 10000
COCCCOc1ccc(C(=O)NCC(O)CN2CCc3ccccc3C2)cc1 (stereo not shown) [Compound 146]	< 100	1000 to 10000
O=C(NC[C@H](O)CN1CCc2ccccc2C1)c1ccnc(NCCNCC(F)(F)F)c1 [Compound 316]	< 100	1000 to 10000
CN1CCC(Oc2ccc(C(=O)NCC(O)CN3CCc4ccccc4C3)cc2)CC1 (stereo not shown) [Compound 105]	< 100	1000 to 10000
CS(=O)(=O)N1CCC(Nc2cc(C(=O)NC[C@H](O)CN3CCc4ccccc4C3)ncn2)C1 (stereo partly shown) [Compound 257]	< 100	1000 to 10000
O=C(NC[C@H](O)CN1CCc2ccccc2C1)c1csc2ccccc12 [Compound 248]	101 to 1000	1000 to 10000
O=C(NCC(O)CN1CCc2ccccc2C1)c1cccc(OC2CCNC2)c1 (stereo not shown) [Compound 119]	101 to 1000	1000 to 10000
O=C1COc2cc(C(=O)NCC(O)CN3CCc4ccccc4C3)ccc2N1 (stereo not shown) [Compound 89]	101 to 1000	> 20000
Cn1ccnc1C(=O)NCC(O)CN1CCc2ccccc2C1 (stereo not shown) [Compound 171]	101 to 1000	1000 to 10000
CC(C)N1CCC(Oc2ccc(C(=O)NCC(O)CN3CCc4ccccc4C3)cc2)C1 (stereo not shown) [Compound 196]	< 100	1000 to 10000
O=C(NCC(O)CN1CCc2ccccc2C1)c1cccc(CN2CCN(CC(F)(F)F)CC2)c1 (stereo not shown) [Compound 92]	< 100	1000 to 10000
CN(C)CCN(C)c1cc(C(=O)NC[C@H](O)CN2CCc3ccccc3C2)ccn1 [Compound 186]	< 100	1000 to 10000
CN1CCN(Cc2cccc(C(=O)NCC(O)CN3CCc4ccccc4C3)c2)CC1 (stereo not shown) [Compound 30, N-(3-(3,4-dihydroisoquinolin-2(1H)-yl)-2-hydroxypropyl)-3-((4-methylpiperazin-1-yl)methyl)benzamide]	101 to 1000	1000 to 10000

Further lines, with some results ahead:

EC50 [1] [nM]	SMILES	EC50 [2] [nM]
< 100	O=C(NC[C@H](O)CN1CCc2ccccc2C1)c1ccnc(NC2CCOC2)c1 (stereo partly shown) [Compound 306]	< 100
< 100	C[C@H]1CC(Nc2cccc(C(=O)NC[C@H](O)CN3CCc4ccccc4C3)c2)CCO1 (stereo partly shown) [Compound 167]	101 to 1000
< 100	O=C(NC[C@H](O)CN1CCc2ccccc2C1)c1cncc(NC2CCOC2)c1 (stereo partly shown) [Compound 211]	< 100
< 100	CS(=O)(=O)N1CC[C@@H](Nc2cccc(C(=O)NC[C@H](O)CN3CCc4ccccc4C3)c2)C1 [Compound 267]	101 to 1000
< 100	CC(=O)N1CCC(Nc2cccc(C(=O)NC[C@H](O)CN3CCc4ccccc4C3)c2)CC1 [Compound 215]	< 100
< 100	O=C(NC[C@H](O)CN1CCc2ccccc2C1)c1cccc(NC2CCOC2)c1 (stereo partly shown) [Compound 80]	101 to 1000
101 to 1000	O=C(NCC(O)CN1CCc2ccccc2C1)c1cccc(NC2CCOCC2O)c1 (stereo not shown) [Compound 98]	1000 to 10000
< 100	O=C(NC[C@H](O)CN1CCc2ccccc2C1)c1cc(NC2CCNC2)ncn1 (stereo partly shown) [Compound 209]	10000 to 50000
< 100	CN1CCC(Nc2cccc(C(=O)NC[C@H](O)CN3CCc4ccccc4C3)c2)CC1 [Compound 239]	1000 to 10000
< 100	C[C@@H]1CC(Nc2cccc(C(=O)NC[C@H](O)CN3CCc4ccccc4C3)c2)CCO1 (stereo partly shown) [Compound 168]	101 to 1000
< 100	O=C(NCC(O)CN1CCc2ccccc2C1)c1cccc(C2CCOCC2)c1 (stereo not shown) [Compound 99]	1000 to 10000
< 100	O=C(NCC(O)CN1CCc2ccccc2C1)c1cc(F)cc(NC2CCOCC2)c1 (stereo not shown) [Compound 78]	101 to 1000
< 100	O=C(NCC(O)CN1CCc2ccccc2C1)c1cccc(NC2CCN(CC(F)(F)F)C2)c1 (stereo not shown) [Compound 102]	1000 to 10000
101 to 1000	O=C(NCC(O)CN1CCc2ccccc2C1)c1cccc(N2CCOCC2)c1 (stereo not shown) [Compound 14, N-(3-(3,4-dihydroisoquinolin-2(1H)-yl)-2-hydroxypropyl)-3-morpholinobenzamide]	1000 to 10000
< 100	CC(=O)N1CCC(Nc2cncc(C(=O)NC[C@H](O)CN3CCc4ccccc4C3)c2)CC1 [Compound 302]	< 100
< 100	CC1CC(Nc2cccc(C(=O)NC[C@@H](O)CN3CCc4ccccc4C3)c2)CC(C)O1 (stereo partly shown) [Compound 153]	101 to 1000
< 100	O=C(NC[C@H](O)CN1CCc2ccccc2C1)c1ccnc(NC2CCOCC2)c1 [Compound 192]	101 to 1000
< 100	CS(=O)(=O)N1CCC(Nc2cccc(C(=O)NCC(O)CN3CCc4ccccc4C3)c2)CC1 (stereo not shown) [Compound 125]	101 to 1000
101 to 1000	O=C(NC[C@@H](O)CN1CCc2ccccc2C1)c1cccc(NC2CCOC2)c1 (stereo partly shown) [Compound 81]	1000 to 10000
101 to 1000	O=C(NC[C@H](O)CN1CCc2ccccc2C1)c1cncc(NC2CCNC2)c1 (stereo partly shown) [Compound 259]	> 20000
